Assay results published in patent US20250312394A1, “Lacticaseibacillus Rhamnosus DY801 and Application Thereof” (priority 2024, published 2025).
Converted amounts (≈) assume the structure as drawn. Structures can show the parent of a compound that is named as a salt. Where two headings read alike, the source gives them in different places.

Tests used:
[1] = test system: Lacticaseibacillus rhamnosus DY801; assay: Antibiotic sensitivity by broth trace-dilution method (MIC); format: cell-based; conditions: for MIC: Lacticaseibacillus rhamnosus, read-out: Detected MIC; for Determination of the reading: sensitivity of DY801 to the antibiotic according to the General Standard
Experimental: In the present example, the sensitivity of Lacticaseibacillus rhamnosus DY801 against eight antibiotics was tested using the broth trace-dilution method according to “the General Standard of Probiotics for Food Use” (hereinafter referred as General Standard) published by the Chinese Institute of Food Science and Technology. The eight antibiotics were: tetracycline, streptomycin, ciprofloxacin hydrochloride, clindamycin, vancomycin, chloramphenicol, ampicillin and gentamicin. […] The minimum inhibitory concentration (hereinafter referred as MIC) of Lacticaseibacillus rhamnosus DY801 for each antibiotic was read after 48 hours. The strain thereof was determined to be sensitive(S), intermediate (I), resistant (R) and not required (n.r.) for the antibiotic according to the bacterial resistance criteria provided in the General Standard, and the results are shown in Table 2.

[2] = test system: Lacticaseibacillus rhamnosus DY801; conditions: bacterial resistance criteria of the General Standard of Probiotics for Food Use; cited from earlier work
[3] = DY801 suspension 1×10^8 CFU/mL, anaerobic 37° C., read after 48 hours

Row | Compound | MIC [1, 3] | Determination of the reading [1] | MIC in the General Standard [2] | Detected MIC [1, 3] | MIC ([1]; DY801, 48 h)
1 | CC1(C)S[C@@H]2[C@H](NC(=O)[C@H](N)c3ccccc3)C(=O)N2[C@H]1C(=O)O [ampicillin] | 4 µg/mL (≈ 11.4 µM) | S | 4 µg/mL (≈ 11.4 µM) |  | 
2 | O=C(N[C@H](CO)[C@H](O)c1ccc([N+](=O)[O-])cc1)C(Cl)Cl [chloromycetin, chloramphenicol] |  | S | 4 µg/mL (≈ 12.4 µM) | 2 µg/mL | 
3 | O=C(O)c1cn(C2CC2)c2cc(N3CCNCC3)c(F)cc2c1=O [ciprofloxacin hydrochloride] | 64 µg/mL |  |  |  | 
4 | CCC[C@@H]1C[C@@H](C(=O)N[C@@H]([C@H]2O[C@H](SC)[C@H](O)[C@@H](O)[C@H]2O)[C@H](C)Cl)N(C)C1 [clindamycin] | 4 µg/mL (≈ 9.41 µM) | S |  | 4 µg/mL | 
5 | [H]/N=C(/N)N[C@H]1[C@H](O)[C@@H](O)[C@H](O[C@@H]2O[C@@H](C)[C@](O)(C=O)[C@H]2O[C@@H]2O[C@@H](CO)[C@H](O)[C@@H](O)[C@@H]2NC)[C@@H](N/C(N)=N\[H])[C@@H]1O [streptomycin] | 32 µg/mL (≈ 55 µM) | S | 32 µg/mL (≈ 55 µM) |  | 
6 | CN(C)[C@@H]1C(O)=C(C(N)=O)C(=O)[C@@]2(O)C(O)=C3C(=O)c4c(O)cccc4[C@@](C)(O)[C@H]3C[C@@H]12 [tetracycline] | 8 µg/mL (≈ 18 µM) | S |  |  | 
7 | CN[C@H](CC(C)C)C(=O)N[C@H]1C(=O)N[C@@H](CC(N)=O)C(=O)N[C@H]2C(=O)N[C@H]3C(=O)N[C@H](C(=O)N[C@H](C(=O)O)c4cc(O)cc(O)c4-c4cc3ccc4O)[C@H](O)c3ccc(c(Cl)c3)Oc3cc2cc(c3O[C@@H]2O[C@H](CO)[C@@H](O)[C@H](O)[C@H]2O[C@H]2C[C@](C)(N)[C@H](O)[C@H](C)O2)Oc2ccc(cc2Cl)[C@H]1O [vancomycin] |  |  |  |  | 64 µg/mL (≈ 44.2 µM)
8 | gentamicin [gentamycin] |  | S | 16 µg/mL | 16 µg/mL | 
